Experimental data reported in patent US20110160444A1, “Cloning Transcription Factor Gene OsWOX20 That Regulates The Growth and Development of Monocotyledon's Root and Uses Thereof” (Huazhong Agricultural University, priority 2007, published 2011).

What was measured:
OsWOX20 gene expression = test: Induced expression of rice endogenous gene OsWOX20 by realtime-PCR; format: in vivo, rice variety Zhonghua No. 11; conditions: 10 μM, roots of seedlings soaked; for Induction of expression of OsWOX20 gene: samples 0-24 h, normalized to actin1; for Time after which level of expression of OsWOX20 began to rise / Time at which level of expression of OsWOX20 reached peak: exogenous auxin
Procedure: The rice variety “Zhonghua No. 11” was used as the research material and treated with auxin, cytokinin, an auxin inhibitor and light at day ten after germination. Auxin treatment was done by soaking the roots of the seedlings with 10 μM IAA (indoleacetic acid) and 10 μM NAA (naphthaleneacetic acid) and taking samples at 0 h, 0.5 h, 1 h, 2 h, 3 h, 4 h, 6 h, 9 h, 12 h and 24 h. Cytokinin treatment was done by soaking the roots of the seedlings with 10 μM 6-BA (6-benzylaminopurine) and taking samples at 0 h, 0.5 h, 1 h, 2 h, 3 h, 4 h, 6 h, 9 h, 12 h and 24 h. Auxin inhibitor NPA (N-1-naphthylphthalamic acid) treatment was performed by soaking the roots of the seedlings in 1 μM NPA solution and taking samples at 0 h, 0.5 h, 1 h, 2 h, 3 h, 4 h, 6 h, 9 h, 12 h and 24 h. Light treatment was carried out by allowing the seeds of rice variety “Zhonghua No. 11” to germinate in dark, then placing the seedlings which have germinated for 5 days in dark under light for growth, and sampling at 1 h, 2 h, 4 h, 8 h and 12 h after light illumination. Total RNAs were extracted from whole plants (Trizol reagent, purchased from Invitrogen) and reverse transcribed according to the method described in Example 4. The reverse transcription product was subjected to quantitative PCR in a reaction system of 25 μl containing 1.5 μl of reverse transcription product, 0.25 μM of each of left and right primers and 12.5 μl of SYBR Green mixture (Applied Biosystems). The PCR reaction was performed on a 7500 real-time quantitative PCR amplifier (Applied Biosystems) according to the protocol described in the manufacturer's manual provided by Applied Biosystems, with rice actin1 gene as the internal reference of the reaction. All primers were annealed at 58° C. and reaction was performed for 40 cycles. Each sample was assayed in triplicate and normalized to the level of expression of actin1. […] The OsWOX20 primers used in the quantitative PCR were: […]

[1] = tested on: transgenic plants (OsWOX20 overexpression lines 1-3); test: Effect of auxin inhibitor (NPA) on root length and numbers of crown and lateral roots, OsWOX20 transgenic plants; format: in vivo, rice; conditions: for Length of roots / Number of crown roots / Number of lateral roots: treated with 10^-6 mol/L NPA
Text: (§1) 2) In order to compare the root system of transgenic OWOX20 lines with increased number of roots to that of wild-type lines, we collected seeds from five transgenic OWOX20 lines after the seeds were completely ripe and allowed the seeds to germinate to investigate growth of the roots.

wild-type plants = test: Effect of auxin inhibitor (NPA) on root length and numbers of crown and lateral roots, wild-type plants; format: in vivo, rice; conditions: treated with 10^-6 mol/L NPA
Text: as §1

SMILES: O=C(O)Cc1c[nH]c2ccccc12 [IAA, indoleacetic acid]
- Induction of expression of OsWOX20 gene (OsWOX20 gene expression): can be induced
- Time after which level of expression of OsWOX20 began to rise (OsWOX20 gene expression): 30 min
- Time at which level of expression of OsWOX20 reached peak (OsWOX20 gene expression): about 1 hour

SMILES: c1ccc(CNc2ncnc3nc[nH]c23)cc1 [6-BA, 6-benzylaminopurine]
- Induction of expression of OsWOX20 gene (OsWOX20 gene expression): can be induced

SMILES: O=C(O)c1ccccc1C(=O)Nc1cccc2ccccc12 [NPA, N-1-naphthylphthalamic acid]
- Growth of the roots ([1]; seeds from lines having increased number of roots, 10^-6 mol/L NPA): markedly inhibited
- Length of roots ([1]; transgenic Line 1+): 1.1 ± 0.3 cm
- Number of crown roots ([1]; transgenic Line 1+): 3.0 ± 2.7
- Number of lateral roots ([1]; transgenic Line 1+): 0
- Length of roots ([1]; transgenic Line 2+): 1.3 ± 0.6 cm
- Number of crown roots ([1]; transgenic Line 2+): 1.7 ± 0.6
- Number of lateral roots ([1]; transgenic Line 2+): 0
- Length of roots ([1]; transgenic Line 3+): 1.0 ± 0.6 cm
- Number of crown roots ([1]; transgenic Line 3+): 3.0 ± 1.0
- Number of lateral roots ([1]; transgenic Line 3+): 0
- Numbers and length of crown roots and lateral roots versus untreated plant lines ([1]; transgenic plant lines in the presence of NPA): significantly decreased
- Length of roots (wild-type plants): 4.8 ± 0.5 cm
- Number of crown roots (wild-type plants): 3 ± 0
- Number of lateral roots (wild-type plants): 6.4 ± 2.8

SMILES: O=C(O)Cc1cccc2ccccc12 [NAA, naphthaleneacetic acid]
- Time after which level of expression of OsWOX20 began to rise (OsWOX20 gene expression): 30 min
- Time at which level of expression of OsWOX20 reached peak (OsWOX20 gene expression): about 1 hour
